Results published in patent US20250361235A1, “PIPERIDINYL-METHYLPURINE BENZENES AND RELATED COMPOUNDS AND THEIR USE IN TREATING DISEASES AND CONDITIONS” (K36 Therapeutics, Inc., priority 2022, published 2025).
pIC50: −log10 of the molar value.

Molecular target: recombinant human NSD2 (Homo sapiens (Human), UniProt O96028)
Test: NSD2 inhibitory activity, modified RBC HotSpot HMT Assay (3H-SAM, oligonucleosome substrate)
Assay type: biochemical
Details: recombinant human NSD2 (2 nM), chicken oligonucleosomes 0.05 mg/ml, 3H-SAM 1 μM, 1 hour at 30° C.
Method: Exemplary compounds were tested for NSD2 inhibitory activity using a modified RBC HotSpot HMT Assay.
A reaction mixture was prepared by adding oligonucleosomes from Chicken (0.05 mg/ml) to freshly prepared reaction buffer containing 50 mM Tris-HCl (pH 8.5), 50 mM NaCl, 5 mM MgCl2, 0.01% Brij35, 1 mM DTT, and 1% DMSO followed by the addition of recombinant human NSD2, (amino acids 2-end) with N-terminal His tag (2 nM; GenBank Accession No. NM_001042424; MW=155.5 kDa; expressed in Sf9 insect cells) and gentle mixing. The test compounds were diluted in DMSO, added to the reaction mixture in nanoliter amounts by using Acoustic Technology (Echo 550, LabCyte Inc. Sunnyvale, CA) and incubated for 20 minutes at room temperature. The reaction was initiated by the addition of S-Adenosyl-L-[methyl-^3H] methionine (3H-SAM; 1 μM), and the mixture was incubated for 1 hour at 30° C. The reaction mixture was delivered to filter paper and the methylated substrate was quantified by scintillation counting. Data analysis was performed using Excel and GraphPad Prism software for IC50 curve fits. For additional information on the histone methyltransferase assay, see, for example, Horiuchi K Y, et al., “Assay Development for Histone Methyltransferases,” Assay Drug Dev Technol. 2013 May; 11 (4): 227-36.

Sequence of recombinant human NSD2 (O96028 2-1365 limits assumed): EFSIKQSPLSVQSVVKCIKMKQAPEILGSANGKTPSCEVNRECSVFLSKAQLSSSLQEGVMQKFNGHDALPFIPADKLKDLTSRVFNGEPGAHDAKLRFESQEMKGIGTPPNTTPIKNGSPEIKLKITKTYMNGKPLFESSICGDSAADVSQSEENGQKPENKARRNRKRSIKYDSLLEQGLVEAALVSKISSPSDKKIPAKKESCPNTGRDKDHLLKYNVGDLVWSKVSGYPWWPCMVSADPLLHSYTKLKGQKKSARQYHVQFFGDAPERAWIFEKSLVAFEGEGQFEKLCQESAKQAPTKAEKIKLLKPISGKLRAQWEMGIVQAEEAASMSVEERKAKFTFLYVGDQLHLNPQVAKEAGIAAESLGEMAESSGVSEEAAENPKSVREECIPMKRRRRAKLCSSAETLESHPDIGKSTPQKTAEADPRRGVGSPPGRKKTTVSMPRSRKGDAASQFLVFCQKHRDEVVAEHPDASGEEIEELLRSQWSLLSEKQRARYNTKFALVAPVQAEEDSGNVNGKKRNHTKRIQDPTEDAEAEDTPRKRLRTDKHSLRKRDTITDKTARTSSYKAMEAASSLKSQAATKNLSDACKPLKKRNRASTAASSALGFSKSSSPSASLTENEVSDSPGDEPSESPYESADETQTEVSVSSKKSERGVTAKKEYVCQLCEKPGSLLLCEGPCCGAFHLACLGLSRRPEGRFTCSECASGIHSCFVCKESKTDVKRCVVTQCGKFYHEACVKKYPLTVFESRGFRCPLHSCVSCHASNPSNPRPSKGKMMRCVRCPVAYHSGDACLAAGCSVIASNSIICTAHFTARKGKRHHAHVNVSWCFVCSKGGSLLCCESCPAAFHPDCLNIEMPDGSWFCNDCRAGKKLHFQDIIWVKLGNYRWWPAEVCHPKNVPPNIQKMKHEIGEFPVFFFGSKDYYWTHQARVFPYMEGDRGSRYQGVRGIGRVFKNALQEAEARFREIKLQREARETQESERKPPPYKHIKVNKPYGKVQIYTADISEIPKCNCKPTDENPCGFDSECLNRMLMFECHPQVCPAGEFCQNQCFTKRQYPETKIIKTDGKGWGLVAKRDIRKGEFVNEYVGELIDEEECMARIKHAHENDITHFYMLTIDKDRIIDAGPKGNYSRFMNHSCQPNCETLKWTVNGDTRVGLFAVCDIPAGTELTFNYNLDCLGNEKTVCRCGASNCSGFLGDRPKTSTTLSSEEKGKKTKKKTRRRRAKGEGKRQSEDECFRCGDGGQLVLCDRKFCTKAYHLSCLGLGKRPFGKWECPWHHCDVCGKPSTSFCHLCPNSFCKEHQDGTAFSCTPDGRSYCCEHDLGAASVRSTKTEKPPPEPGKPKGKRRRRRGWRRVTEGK

pIC50	Structure (SMILES)
< 6.00	COc1cc(F)c(-c2ccc(N3CCC[C@](N)([C@H](O)C(F)F)C3)c(Cn3cnc4c(N)ncnc43)n2)cc1F [III-1, (S)-1-((R)-3-amino-1-(2-((6-amino-9H-purin-9-yl)methyl)-6-(2,5-difluoro-4-methoxyphenyl)pyridin-3-yl)piperidin-3-yl)-2,2-difluoroethan-1-ol]
6.00 to 8.00	COc1cc(F)c(-c2cnc(N3CCC[C@](N)([C@H](O)C(F)F)C3)c(Cn3cnc4c(N)ncnc43)c2)cc1F [II-1, (S)-1-((R)-3-amino-1-(3-((6-amino-9H-purin-9-yl)methyl)-5-(2,5-difluoro-4-methoxyphenyl)pyridin-2-yl)piperidin-3-yl)-2,2-difluoroethan-1-ol]
8.00 to 9.00	COc1cc(F)c(-c2ccc(N3CCC[C@](N)([C@H](O)C(F)F)C3)c(Cn3cnc4c(N)ncnc43)c2)cc1F [Compound I-1, (S)-1-((R)-3-amino-1-(3-((6-amino-9H-purin-9-yl)methyl)-2′,5′-difluoro-4′-methoxy-[1,1′-biphenyl]-4-yl)piperidin-3-yl)-2,2-difluoroethan-1-ol]
